Reference: patent publication US12077501B2, “Compounds and compositions for intracellular delivery of agents” (ModernaTX, Inc., priority 2017, dated 2024)
Each block holds one molecule with its values, some of them ahead of it.

Columns and labels:
[1] = Purity at start and after storage for 65 h at 25 °C or 37 °C; format: physicochemical
[2] = system: hEPO expression; assay: hEPO expression in CD-1 mice compared with MC3; format: in vivo
Summary of the method: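 Mice (CD-1) received nanoparticle compositions formulated with the disclosed compounds at 0.5 mpk. Expressed hEPO was then quantified, and clearance was assessed alongside.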

[3] = system: hepatocytes and Kupffer cells; assay: Mouse liver immunohistochemistry (IHC) with GFP mRNA (FIGS. 11A, 11B); format: in vivo; settings: LDLR knockout mouse liver, 8h after intravenous administration, 0.5 mpk (FIG. 11B), in contrast to MC3
Text: FIGS. 11A and 11B are a pair of images comparing the results of a mouse liver immunohistochemistry (IHC) using mRNA expressing green fluorescent protein (GFP) after administration of nanoparticle compositions containing Compound 4 and MC3.

[4] = system: hEPO expression; assay: hEPO expression in Cynomolgus monkeys; format: in vivo; settings: 0.05 mg/kg
Protocol: Nanoparticle compositions of the disclosure, including an mRNA encoding hEPO and comprising a miR binding site, were administered to Cynomolgus monkeys at a dose of 0.05 mg/kg via a 60 min intravenous infusion.

[5] = system: hEPO expression; assay: hEPO (miR126 + miR142) mRNA expression, Tables 8b-8e; format: in vivo
[6] = Lipid clearance: % dose remaining in liver of CD-1 mice; format: in vivo; settings: intravenous, 0.5 mg/kg, CD-1 mouse, Table 8a
Summary of the method: (§1)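 CD-1 mice, 0.5 mpk dose of test-compound nanoparticle formulation; hEPO protein expression read out; clearance data also recorded.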

[7] = Lipid clearance: % dose remaining, Tables 7c and 8b-8e (species not given); format: in vivo
Summary of the method: as §1

[8] = Particle size and polydispersity index of nanoparticle compositions (Zetasizer Nano ZS); format: physicochemical; settings: row marked **: Formulated with lipid:Chol:DOPE:PEG 1 30:38.5:30:1.5
Protocol: A Zetasizer Nano ZS (Malvem Instruments Ltd, Malvem, Worcestershire, UK) can be used to determine the particle size, the polydispersity index (PDI) and the zeta potential of the nanoparticle compositions in 1×PBS in determining particle size and 15 mM PBS in determining zeta potential.

[9] = Encapsulation efficiency of RNA (QUANT-IT RIBOGREEN RNA assay); format: physicochemical; settings: row marked **: Formulated with lipid:Chol:DOPE:PEG 1 30:38.5:30:1.5
Summary of the method: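 RiboGreen fluorescence (ex about 480, em about 520 nm) compares nanoparticle samples left intact versus disrupted with 2% Triton X-100 (15 min, 37° C). Samples are first brought to roughly 5 μg/mL in 10 mM Tris-HCl, 1 mM EDTA, pH 7.5; percent free RNA equals the blank-corrected intact/disrupted signal ratio.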

[10] = Characteristics of nanoparticle compositions formulated with PEG-DMG or PEG 1 over 4 weeks; format: physicochemical
Protocol: Formulations were prepared according to Table 13 and included an mRNA encoding hEPO and the particle size, polydispersity index and encapsulation efficiency were recorded on day 1 (week 1), day 8 (week 2), day 15 (week 3), and day 22 (week 4), of the study.

[11] = system: luciferase; assay: Luciferase expression in LDLR −/− knockout and wild-type mice (FIG. 9A); format: in vivo, mouse; settings: 0.05 mpk, 0.25 mpk and 0.5 mpk (FIG. 9A)
Text: FIG. 9A is a bar graph showing expression of luciferase induced by administration of nanoparticle compositions including Compound 11 at dosages of 0.05 mpk, 0.25 mpk, and 0.5 mpk to LDLR −/− knockout and wild-type mice.

[12] = system: rats; assay: Tolerability / toxicity in rats (FIGS. 8A, 8B); format: in vivo; settings: for toxicity: 2 mg/kg dose
[13] = system: LDL-c; assay: LDL-c levels in LDLR knockout mice after mRNA encoding the LDL receptor (FIG. 9B); format: in vivo, mouse; settings: mRNAs encoding the LDL receptor, Compound 11 at 0.5 and 1 mpk (FIG. 9B)
[14] = system: hEPO; assay: hEPO expression in rats after i.v. administration of nanoparticle compositions (FIGS. 8A, 8B); format: in vivo, rat
Text: PBS (phosphate buffered saline) is used as control. FIG. 8A compares the hEPO concentration after administration of nanoparticle compositions containing Compound 23, Compound 11, KL22, and MC3 at 2 mpk, i.v. administration. […] FIG. 8B illustrates the results of a dose response study using Compound 20, KL22, and MC3 at dose of 0.2, 0.5 and 1 mpk. […] In FIG. 8A, the numbers 1-5 refer to compositions containing the following: 1: Compound 23, 2: Compound 11, 3: KL22; 4: MC3; 5: PBS. In FIG. 8B, the numbers […] refer to compositions containing the following: 1: Compound 20, 0.2 mpk; 2: Compound 20, 0.5 mpk; 3: Compound 20, 1 mpk; 4: KL22, 0.2 mpk; 5: KL22, 0.5 mpk; 6: KL22, 1 mpk; 7: MC3, 0.2 mpk; 8: MC3, 0.5 mpk; 9: MC3, 1 mpk; 10: PBS.

[15] = system: luciferase expression; assay: Expression of Luc in different organs (liver, lung, spleen, femur), bioluminescence; format: in vivo; settings: mice, intravenous, 0.5 mpk, 6 hours
Protocol: The efficacy of the nanoparticle compositions presented in Tables 1, la, 17-1, 19-1, 20-1 and 21-1 was further evaluated by measuring the expression of modified luciferase in the liver, lung, spleen, and femur upon administration of a given composition. Formulations were administered intravenously to mice (n=3) at a dosage of 0.5 mpk and bioluminescence measured after 6 hours. The standard MC3 formulation and a PBS control were also tested.

[16] = system: Luc expression; assay: Luc expression in CD-1 mice compared with MC3; format: in vivo; settings: ratio to MC3, Table 7a
Text: In contrast, hEPO expression in rats induced by administration of a nanoparticle composition including a compound according to one of formulae (I), (Ia1)-(Ia6), (Ib), (II), (IIa), (III), and (IIIa) was substantially […] than that measured for MC3. […] Tables 7c and 7d show additional protein expressions and clearance data from compositions with various compounds disclosed herein as compared to with MC3. Tables 7e, 7f and 7g show hEPO expression data in CD-1 mice at a dose of 0.5 mpk.

[17] = system: LDL levels; assay: LDL levels in LDLr-/- mice relative to untreated; format: in vivo; settings: intravenous, Table 7b
[18] = Week 1, 40:20:38.5:1.5 Lipid:DOPE:Chol:PEG 1
[19] = Week 1, 40:20:38.5:1.5 Lipid:DOPE:Chol:PEG-DMG
[20] = Week 2, 40:20:38.5:1.5 Lipid:DOPE:Chol:PEG 1
[21] = Week 2, 40:20:38.5:1.5 Lipid:DOPE:Chol:PEG-DMG
[22] = Week 3, 40:20:38.5:1.5 Lipid:DOPE:Chol:PEG 1
[23] = Week 3, 40:20:38.5:1.5 Lipid:DOPE:Chol:PEG-DMG
[24] = Week 4, 40:20:38.5:1.5 Lipid:DOPE:Chol:PEG 1
[25] = Week 4, 40:20:38.5:1.5 Lipid:DOPE:Chol:PEG-DMG

- Purity % 25° C. no shaking t = 65 h ([1]; after storage for 65 h at 25° C., no shaking): 99%
- Purity % 37° C. shaking t = 65 h ([1]; after storage for 65 h at 37° C., shaking): 99%
- Purity % t = 0 h ([1]; beginning of the study, 25° C.): 98%
- % Dose Remaining 24 hr [6]: 60.36%
- % Dose Remaining (liver, 24 h) ([7]; Table 8b): 39.23%
- % Dose Remaining (liver, 24 h) ([7]; Table 8c): 37.05%
- % Dose Remaining (liver, 24 h) ([7]; Table 8d): 43.02%
- PDI ([8]; Table 1e): 0.19
- Size (nm) ([8]; Table 1e): 99.2 nm
- PDI ([8]; Table 1f): 0.21
- Size (nm) ([8]; Table 1f): 111.5 nm
- PDI ([8]; Table 1d): 0.23
- Size (nm) ([8]; Table 1d): 101.5 nm
- EE (%) ([9]; Table 1e): 98.6%
- EE (%) ([9]; Table 1f): 98.8%
- EE (%) ([9]; Table 1d): 99.1%
- EE (%) [10, 18]: 98%
- PDI [10, 18]: 0.22
- Size (nm) [10, 18]: 101.5 nm
- EE (%) [10, 19]: 99%
- PDI [10, 19]: 0.23
- Size (nm) [10, 19]: 79.9 nm
- EE (%) [10, 20]: 97%
- PDI [10, 20]: 0.21
- Size (nm) [10, 20]: 104.1 nm
- EE (%) [10, 21]: 99%
- PDI [10, 21]: 0.21
- Size (nm) [10, 21]: 79.9 nm
- EE (%) [10, 22]: 97%
- PDI [10, 22]: 0.2
- Size (nm) [10, 22]: 100.4 nm
- EE (%) [10, 23]: 99%
- PDI [10, 23]: 0.22
- Size (nm) [10, 23]: 77.3 nm
- EE (%) [10, 24]: 97%
- PDI [10, 24]: 0.2
- Size (nm) [10, 24]: 101.9 nm
- EE (%) [10, 25]: 99%
- PDI [10, 25]: 0.21
- Size (nm) [10, 25]: 73.6 nm
Structure (SMILES): CCCCCCCCCN(CCCCCCCCC)CCN(CCCCCCCCC)CC(=O)N1CCN(C(=O)CN(CCCCCCCCC)CCCCCCCCC)CC1 [Compound 4, 2-(Dinonylamino)-1-(4-(N-(2-(dinonylamino)ethyl)-N-nonylglycyl)piperazin-1-yl)ethan-1-one]
- AUC (p/s*h) CD-1 mice 0.5 mpk ([2]; intramuscular, title: 0.01 mg/kg, Table 7f): 366551 p/s*h
- AUC (p/s*h) CD-1 mice 0.5 mpk ([2]; subcutaneous, 0.5 mg/kg, Table 7g): 859874 p/s*h
- GFP protein expression in liver cell types (IHC) [3]: less protein expression in Kupffer cells
- levels of hEPO expression compared to MC3 [4]: improved levels of hEPO expressions
- AUC ([5]; Table 8b): 6.7e+07 pg·h/mL
- AUC ([5]; Table 8c): 8.47e+07 pg·h/mL
- AUC ([5]; Table 8d): 1.83e+09 pg·h/mL
- AUC (mIU/mL*h) ([5]; lipid:Chol:PEG 1 50:47.5:2.5, Table 8e): 2.76E+08 mIU/mL*h

Structure (SMILES): CCCCCCCCCCCCN(CCCCCCCCCCCC)CCN(CCCCCCCCCCCC)CC(=O)N1CCN(C(=O)CN(CCCCCCCCCCCC)CCCCCCCCCCCC)CC1 [Compound 11, 2-(Didodecylamino)-1-(4-(N-(2-(didodecylamino)ethyl)-N-dodecylglycyl)piperazin-1-yl)ethan-1-one]
- LDLr dependence of luciferase expression [11]: LDLr independent lipid
- tolerability ([12]; 2 mpk, i.v. (FIG. 8A), compared to KL22): improved tolerability as compared to KL22
- LDL-c levels [13]: found to drop
- hEPO concentration after administration of nanoparticle compositions ([14]; rats, 2 mpk, i.v. administration (FIG. 8A)): comparable to MC3

Structure (SMILES): CCCCCCCCCCCCCCN(CCCCCCCCCCCCCC)CCN1CCN(CCN(CCCCCCCCC)CCN(CCCCCCCCC)CCCCCCCCC)CC1 [Compound 20, N^1-(2-(4-(2-(Ditetradecylamino)ethyl)piperazin-1-yl)ethyl)-N^1,N^2,N^2-trinonylethane-1,2-diamine]
- total flux, rank among the compositions of Table 3 [15]: highest total flux

Structure (SMILES): CCCCCCCCCCCCN(CCCCCCCCCCCC)CCN(CCCCCCCCCCCC)CCN1CCN(CCN(CCCCCCCCC)CCCCCCCCC)CC1 [Compound 23, N^1-(2-(4-(2-(Dinonylamino)ethyl)piperazin-1-yl)ethyl)-N^1,N^2,N^2-tridodecylethane-1,2-diamine]
- toxicity [12]: toxic
- Lipid/MC3 Luc CD-1 (mice) [16]: several fold higher

Structure (SMILES): CCCCCCCCCCCCN(CCCCCCCCCCCC)CCN(CCCCCCCCCCCC)CCN1CCN(CCN(CCCCCCCCCCCC)CCCCCCCCCCCC)CC1 [KL22, N1-[2-(didodecylamino)ethyl]-N1,N4,N4-tridodecyl-1,4-piperazinediethanamine, reference compound]
- toxicity [12]: toxic
- LDL levels lipid/untreated LDLr−/− mice 0.5 mpk, LDLr [17]: 0.51
- hEPO expression levels in rats ([14]; rats (FIGS. 8A and 8B)): do not express hEPO in rats
